The source of these data is US6387950B2, “Treatment of tumors with RARα selective retinoid compounds in combination with other anti-tumor agents” (Allergan Sales, Inc., priority 2000, dated 2002).

pEC50: −log10 of the molar value.

Assay [1] addresses T1, RARγ receptors (Homo sapiens, UniProt P13631).
T1 sequence (P13631 185-419 limits assumed): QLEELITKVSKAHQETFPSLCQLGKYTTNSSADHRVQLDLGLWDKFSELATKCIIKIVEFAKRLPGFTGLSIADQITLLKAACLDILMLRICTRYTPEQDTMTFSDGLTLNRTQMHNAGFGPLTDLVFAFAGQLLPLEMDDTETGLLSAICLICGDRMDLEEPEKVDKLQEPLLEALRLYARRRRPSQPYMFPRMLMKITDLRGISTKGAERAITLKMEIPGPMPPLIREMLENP
Kind of assay: chimeric receptor transactivation assay, RARγ. The class given is cell-based. Conditions: agonist activity. The text has this:
(§1) For example, a chimeric receptor transactivation assay which tests for agonist-like activity in the RARα, RARβ, RARγ, RXRα receptor subtypes, and which is based on work published by Feigner P. L. and Holm M. (1989) Focus, 112 is described in detail in U.S. Pat. No. 5,455,265. The specification of U.S. Pat. No. 5,455,265 is hereby expressly incorporated by reference.
(§2) The results obtained in this assay are expressed in EC50 numbers, as they are also in the chimeric receptor transactivation assay.

Assay [2] deals with T2, RARβ receptors (Homo sapiens, UniProt P10826).
T2 sequence (P10826 183-417 limits assumed): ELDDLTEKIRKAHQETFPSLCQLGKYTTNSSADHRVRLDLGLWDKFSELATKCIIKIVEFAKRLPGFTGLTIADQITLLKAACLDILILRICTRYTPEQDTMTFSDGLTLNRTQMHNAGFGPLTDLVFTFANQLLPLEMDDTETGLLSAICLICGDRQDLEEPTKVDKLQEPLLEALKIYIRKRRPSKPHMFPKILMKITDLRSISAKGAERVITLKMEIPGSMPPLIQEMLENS
Kind of assay: chimeric receptor transactivation assay, RARβ. The class given is cell-based. Conditions: agonist activity.
Source text: as §1, §2

For assay [3], the system named is SKBR-3 cells. Kind of assay: cell proliferation assay (BrdU incorporation), SKBR-3. The class given is cell-based, human. The procedure:
The SKBR-3 and T47-D cell cultures in which the assay procedures were performed are also well known and are available from sources well known in the art. Specifically, as is known, T-47D is an estrogen receptor positive (ER^+) human breast cancer cell line, and SK-BR-3 is an estrogen receptor negative (ER^−) human breast cancer cell line. The assay procedure which itself is well known in the art, involves determining incorporation of 5-bromo-2′-deoxyuridine (BrdU) into the cells. As is known, incorporation of less BrdU represents less cell proliferation (inhibition of cell proliferation), and this assay is accepted in the art as a measure of anti-proliferative or anti-tumor activity of the assayed agent or agents.
The estrogen receptor-positive (ER^+) cell line T-47D and the ER^−-cell line SK-BR-3 were cultured in Dulbecco's modification of Eagle's medium (DMEM Gibco BRL, Gaithersburg, Md.) supplemented with 10% fetal bovine serum (HyClone, Logan, Utah), 2 mM L-glutamine and 1% antibiotics-antimycotics (Gibco BRL). Cell lines were obtained from the American Type Culture Collection (ATCC, Rockville, Md., HTB-133 and HTB-30 for T47-D and SKBR-3, respectively). Cells were cultured at 37° C. in a humidified atmosphere containing 5% CO2.
Proliferation of cancer cell lines was determined using a commercial cell proliferation kit (Roche Diagnostics), essentially following the instructions of the manufacturer. Cells were seeded into 96-well tissue culture plates (Corning Incorporated, Corning, N.Y.) at a concentration of 3000 cells/well. After 24 hours, cells were treated with Compound 2 (AGN195183) and/or interferons (IFNs) or solvent alone. The appropriate concentrations of Compound 2 (AGN195183) used in this study were between 10^−11M and 10^−6M; IFNs concentrations were between 25 and 1000 Unit/ml. Culture media were changed every 72 hours. After 7days, 10 μl of 5-bromo-2′-deoxyuridine (BrdU) was added to each well. Incubation with BrdU was stopped 24 hours later by adding 100 μl of anti-BrdU antibody to each well. The amount of BrdU incorporated into the DNA of proliferating cells was assessed by measuring absorbance at 450 nm. Each experiment was performed in triplicate.
The growth inhibition observed in the cell cultures as a result of treatment with a combination of Compound 2 (AGN195183) of the invention and the interferons (IFNs) was analyzed for synergistic and additive effects.
Synergism was defined as: %A×% B>%AB
Additivity was defined as: %A×%B=%AB
where A and B are the effects of each individual agent and AB is the effect of the combination, in accordance with the teaching of Aapro et al., Cancer Chemother. Pharmacol., 10: 161 -166, 1983, and Marth et al., J. Natl. Cancer Inst., 77:1197-1202, 1986), both of which are expressly incorporated herein by reference.
Referring now to the graphs of FIGS. 1 through 12, each of these represents the results obtained in the above described assays where SKBR-3 and T47-D cells, respectively, were treated with a combination of Compound 2 of the invention and human recombinant interferon (IFN) α, β, and γ, respectively. The graph of FIG. 13 illustrates the results of treatment of these two cell cultures only with Compound 2 of the invention, without the use of any other anti-tumor agent. In each of these graphs the incorporation of 5-bromo-2′-deoxyuridine (BrdU) is plotted on the Y (vertical) axis and varying concentration of Compound 2 of the invention or varying concentration of IFNα. IFNβ or of IFNγ, respectively is plotted on the X (horizontal) axis. The concentration of the interferons is expressed in international units, as is accepted in the art, whereas the molar concentration of Compound 2 is plotted on a logarithmic scale. […]
(In general: Dividing cells build labelled thymidine or BrdU into new DNA.)

On to `CC1(C)CCC(C)(C)c2c1cc(C(=O)Nc1cc(F)c(C(=O)O)c(F)c1)c(O)c2Cl` [Compound 2, 2,6-Difluoro-4-[(3-hydroxy-4-chloro-5,5,8 8-tetramethyl-5,6,7,8-tetrahydronaphthalene-2-carbonyl) -amino]-benzoic acid], for which the negative logarithm of the EC50 (pEC50) in assay [1] and in assay [2] was under 5.00 throughout. In addition, the “anti-proliferative effect of the combination (BrdU incorporation)” value in assay [3] (Compound 2 10 nM, IFNα varied, FIG. 1) is “synergistic effect”; in assay [3] (Compound 2 10 nM, IFNα varied, FIG. 1, listed as AGN 195183) it was “synergism”; in assay [3] (Compound 2 10 nM, IFNβ varied, FIG. 2), “significant synergistic effect”; in assay [3] (Compound 2 10 nM, IFNβ varied, FIG. 2, listed as AGN 195183) it was “synergism”; in assay [3] (Compound 2 10 nM, IFNγ varied, FIG. 3), “significant synergistic effect”; in assay [3] (Compound 2 10 nM, IFNγ varied, FIG. 3, listed as AGN 195183), “synergism”. Moreover, the “anti-proliferative effect of the combination (BrdU incorporation)” value in assay [3] (IFNα 100 U/ml, Compound 2 varied, FIG. 4) is on record as “significant synergistic effect”; in assay [3] (IFNα 100 U/ml, Compound 2 varied, FIG. 4, listed as AGN 195183), “synergism”; in assay [3] (IFNβ 100 U/ml, Compound 2 varied, FIG. 5), “significant synergistic effect”; in assay [3] (IFNβ 100 U/ml, Compound 2 varied, FIG. 5, listed as AGN 195183), “synergism”; in assay [3] (IFNγ 100 U/ml, Compound 2 varied, FIG. 6) it was “significant synergistic effect”; in assay [3] (IFNγ 100 U/ml, Compound 2 varied, FIG. 6, listed as AGN 195183), “synergism”.
